Experimental findings from patent publication US20040265847A1, “Method for treating Alzheimer's disease” (priority 1991, published 2004) are described below.

For one data set, the system named is trypsin. The data set can be described thus: tryptic activity on fluorogenic substrate Z-F-R-AMC. Format: biochemical. As to conditions: range of doses.
The subject of data set [1] is human brain membrane-derived APP. The data set can be described thus: trypsin digestion of human brain membrane-derived APP, Western blot with 22C11. Format: biochemical. From the text: The proteolytic activity of trypsin (Boehringer, Mannheim) was studied to determine whether it was modulated by a range of doses of heparin (Sigma) and ZnCl2. […] Western blots for APP using the APP binding monoclonal antibody 22C11 were used to monitor the progression of the proteolytic reaction and to detect breakdown products.
Background: Immunoblotting shows a protein as a band on a membrane.

For another data set, the system named is APP-degrading protease. Briefly: Assay of APP-degrading protease (Zn^2+-enhanced degradation of plasma 130 kDa APP). Format: biochemical, human.
Data set [2] has as its target T1, APP purified from rat brain (Rattus norvegicus, UniProt P08592).
T1 construct: from tissue; host or cells: rat brain
Briefly: heparin binding to APP in a Biosensor system. As to conditions: summary statement, 'may increase'. On the procedure: The effect of Zn^2+ in modulating heparin binding to APP was also studied in a Biosensor system. […] This effect was most pronounced and most specific for Zn^2+, as opposed to the absence of divalent cations or the presence of Ca^2+, Mg^2+ or Co^2+, and was most evident when the heparin:APP ratio was low. […] Zn^2+ at 50 nM promoted a =170% increase in heparin binding, the effect saturating at 70 μM.

The next data set relates to plasma APP. The data set can be described thus: Effect of zinc loading upon human plasma APP. Format: in vivo. The procedure: (§1) 100 mg elemental zinc (as sulphate, in capsules) was given orally to two individuals with Alzheimer's disease (NINCDS/ADRDC criteria with abnormal plasma APP profiles) and two age-matched controls (with normal plasma APP profiles). Zinc was continued for 7 days and morning fasting bloods collected before the commencement of zinc supplements and three weeks after ceasing the supplement. Western blots with monoclonal antibody 22C11 were carried out on 65 μg of plasma heparin-Sepharose eluate purified from the samples in the manner previously described. The results indicated an increase of 130 kDa species plasma APP relative to the other species present, in other words a shift towards the profile of APP species that is characteristic of Alzheimer's disease. The two control plasma APP profiles came to resemble Alzheimer's disease profiles, and the two Alzheimer's profiles worsened. The proportional increase in the 130 kDa species was approximately 20% per day of zinc supplementation.

Data set [3] in a line: Administration of zinc in Alzheimer's disease: neurological response. Format: in vivo, human. The procedure: as §1
The subjects from Example 3 were studied.
The two AD volunteers because acutely unwell while on zinc supplementation. […] Eye movement abnormalities and general levels of self care worsened over the period of supplementation. This response was consistent with a neurotoxic response to the zinc supplementation.

In the next data set the test system is PC12 cells. Briefly: Effect of extracellular APP on zinc uptake by PC12 cells. Type of data set: cell-based. To be noted: 10 nM APP, within an hour (=4% in the absence of APP). The procedure:
10^6 PC12 cells were plated for 24 hr in the presence of Dulbecco's modified Eagle's medium (DMEM, N2) supplemented with 8% fetal calf serum (FCS). The medium was then removed and replaced with DMEM with no FCS and incubated for a further 24 hr. The cells were then washed (×2 with DMEM) and incubated with DMEM supplemented with 10 nM 130/110 kDa purified brain membrane-associated APP carrying 20 000 CPM ^65Zn prepared as in FIG. 1 above. Following varying periods of incubation, the cells were harvested, washed, exposed to Pronase digestion to remove surface proteins and then lysed in scintillant and assayed in a beta-counter.

T1 sequence (P08592 18-770): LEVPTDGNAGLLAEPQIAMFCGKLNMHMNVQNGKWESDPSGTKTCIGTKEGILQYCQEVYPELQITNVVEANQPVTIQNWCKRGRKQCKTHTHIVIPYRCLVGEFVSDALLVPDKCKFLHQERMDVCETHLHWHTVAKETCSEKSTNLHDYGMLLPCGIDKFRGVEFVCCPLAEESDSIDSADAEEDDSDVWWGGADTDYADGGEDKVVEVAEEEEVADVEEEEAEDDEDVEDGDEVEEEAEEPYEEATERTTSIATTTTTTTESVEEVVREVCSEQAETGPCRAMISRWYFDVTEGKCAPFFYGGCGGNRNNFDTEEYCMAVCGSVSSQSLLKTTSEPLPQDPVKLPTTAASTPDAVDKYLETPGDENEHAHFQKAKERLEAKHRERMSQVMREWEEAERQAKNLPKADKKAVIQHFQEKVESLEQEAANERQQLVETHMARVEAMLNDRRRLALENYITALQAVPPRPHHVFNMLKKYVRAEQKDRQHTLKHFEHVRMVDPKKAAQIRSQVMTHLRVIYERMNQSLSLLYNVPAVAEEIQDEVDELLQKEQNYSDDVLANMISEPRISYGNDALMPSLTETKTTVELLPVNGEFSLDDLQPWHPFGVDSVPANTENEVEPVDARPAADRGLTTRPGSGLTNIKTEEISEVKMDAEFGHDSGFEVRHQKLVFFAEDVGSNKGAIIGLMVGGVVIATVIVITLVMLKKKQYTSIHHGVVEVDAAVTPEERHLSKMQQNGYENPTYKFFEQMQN

heparin [reference compound]: the “effect on tryptic activity” value with trypsin was “left tryptic activity unaltered”. Also, the “concentration at which protective effect saturated” value in data set [1] amounted to 10 µM. In addition, in data set [1] (trypsin 1:64, one hour at 37° C.), the “heparin concentration causing marked reduction in rate and degree of brain APP degradation by trypsin” value turned out to be 100 nM. Moreover, in the data set on APP-degrading protease (young adult control preparation, two hours at 37° C., 20 μM ZnCl2), the “influence on Zn^2+-enhanced APP proteolysis” value is on record as “completely inhibited”.

With `[Zn]` [zinc], in data set [2], the “increase of APP affinity for heparin” value lay within 5 to 10 fold. Further, the “proportional increase in the 130 kDa species of plasma APP” value in the data set on plasma APP (100 mg elemental zinc orally for 7 days, AD and age-matched controls) is reported as “approximately 20 % per day”. Moreover, the “persistence of changes in plasma APP profile” value with plasma APP (elderly control, four-fold higher dose over three days) is “persisted for three days after ceasing supplementation”. For the same molecule, the “return of cognitive function to previous levels after ceasing supplementation” value in data set [3] (AD volunteers) is “within two weeks”. Also, the “eye movement abnormalities and general levels of self care” value in data set [3] (AD volunteers, over the period of supplementation) is listed as “worsened”. Moreover, the “mini-mental state examination scores” value in data set [3] (Alzheimer's disease volunteers on oral zinc supplementation) is recorded as “deteriorating from moderately demented levels to unrecordable”. The “ill effects in healthy volunteers” value in data set [3] (healthy volunteers on zinc supplementation) is listed as “no ill effects”. Also, in data set [1] (summary statement), the “zinc concentration at which the protective effects of heparin are abolished” value is recorded as “above 1 μm”. Further, the “zinc concentration required to stimulate proteolysis” value in the data set with APP-degrading protease (plasma APP from heparin-Sepharose eluates, 37° C.) stood at 20 μm.

Turning to “APP: 130/110 kDa purified brain membrane-associated amyloid precursor protein carrying ^65Zn”, the “^65Zn counts internalized” value with PC12 cells was found to be 10%.
